The text below walks through data of US4780412A, “Fibrinolytic enzymes produced from established non-cancerous cell lines” (priority 1982, dated 1988).

Test [1] deals with T1, GPK derived enzyme (from cell line GPK, CNCMI-222) (Cavia porcellus, UniProt H0W0Z7).
T1 construct: residual activity on plasminogen-containing fibrin plate
Description: Inhibition of GPK-derived enzyme activity by 2-mercaptoethanol (fibrin plate, fibrin clot lysis time). The test is classed as biochemical. To be noted: 2-mercaptoethanol at 10 mM or above, incubated 15 min at 37° C., pH 7.8; residual activity on plasminogen containing fibrin plate and by clot lysis time. On the procedure: Various dilutions of the stock solution of 2-mercaptoethanol were prepared in 0.05M sodium diethylbarbiturate buffer, pH 7.8 containing 0.01% Tween 80. GPK derived enzyme (25 μg/ml) was mixed with an equal volume of diluted 2-mercaptoethanol solution and the mixture incubated at 37° C. Control sample contained enzyme with an equal volume of buffer. After 15 min, 50 μl aliquot of the mixture was applied to plasminogen containing fibrin plate to assess the residual enzyme activity. The enzyme activity was also quantitated by fibrin clot lysis time method.

Another test deals with Thrombin. To be noted: values quoted in literature; cited from earlier work.
In test [2] the target is T2, GPK derived enzyme, partially purified (fibrinolytic enzyme / plasminogen activator from cell line GPK, CNCMI-222) (Cavia porcellus, UniProt H0W0Z7).
T2 construct: zinc chelate agarose, partially purified from culture supernatant
T2 sequence (H0W0Z7 33-559): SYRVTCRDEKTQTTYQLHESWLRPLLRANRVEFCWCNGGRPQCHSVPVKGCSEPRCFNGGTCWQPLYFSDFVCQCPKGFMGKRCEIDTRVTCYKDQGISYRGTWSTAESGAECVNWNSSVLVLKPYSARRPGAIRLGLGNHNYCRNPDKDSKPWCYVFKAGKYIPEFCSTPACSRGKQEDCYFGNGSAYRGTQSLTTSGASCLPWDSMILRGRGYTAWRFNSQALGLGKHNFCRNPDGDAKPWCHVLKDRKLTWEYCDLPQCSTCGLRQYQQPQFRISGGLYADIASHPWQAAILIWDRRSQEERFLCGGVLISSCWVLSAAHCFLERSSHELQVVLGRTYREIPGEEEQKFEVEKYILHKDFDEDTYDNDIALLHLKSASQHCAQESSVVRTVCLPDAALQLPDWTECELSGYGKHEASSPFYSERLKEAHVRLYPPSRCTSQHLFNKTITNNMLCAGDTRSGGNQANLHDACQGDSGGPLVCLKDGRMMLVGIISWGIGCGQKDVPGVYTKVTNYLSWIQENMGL
Description: Amidolytic activity on chromogenic substrates (release of p-nitroaniline at 405 nm). The format is biochemical. On the procedure:
The amidolytic activity of the GPK derived enzyme was determined using various chromogenic substrates. […] Z

Test [3] concerns the target Melanoma (malignant melanoma plasminogen activator, HEPA) (Homo sapiens, UniProt P00750). To be noted: values quoted in literature; cited from earlier work.
A further test concerns the target Urokinase (Homo sapiens, UniProt P00749). The conditions noted are these: values quoted in literature; cited from earlier work.
The test system of another test is Plasmin. The conditions noted are these: values quoted in literature; cited from earlier work.

SMILES strings stand for the structures. Counter-ions that a name gives are not always drawn. Square brackets hold non-standard residues; d marks the D form. Peptide text beside a SMILES is read from it. * marks the point of attachment. pNA = O=[N+]([O-])c1ccc(N*)cc1; Bz = O=C(c1ccccc1)*

Melanoma (malignant melanoma plasminogen activator, HEPA), sequence (P00750 36-562): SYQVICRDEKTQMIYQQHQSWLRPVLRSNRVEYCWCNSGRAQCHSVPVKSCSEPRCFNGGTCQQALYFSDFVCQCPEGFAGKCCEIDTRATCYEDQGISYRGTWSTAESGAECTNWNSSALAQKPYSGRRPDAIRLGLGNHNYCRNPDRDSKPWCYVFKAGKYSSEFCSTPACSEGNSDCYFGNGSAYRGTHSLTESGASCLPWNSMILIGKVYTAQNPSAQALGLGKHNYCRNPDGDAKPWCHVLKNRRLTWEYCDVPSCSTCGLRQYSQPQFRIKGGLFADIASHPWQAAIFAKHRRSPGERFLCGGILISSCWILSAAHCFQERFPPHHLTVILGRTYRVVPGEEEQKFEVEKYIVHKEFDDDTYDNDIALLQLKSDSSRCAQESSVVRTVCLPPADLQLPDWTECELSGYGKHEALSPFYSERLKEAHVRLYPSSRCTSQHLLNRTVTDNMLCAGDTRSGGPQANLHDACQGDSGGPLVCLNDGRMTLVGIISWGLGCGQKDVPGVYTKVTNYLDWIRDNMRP
T1 sequence (H0W0Z7 33-559): as the sequence (H0W0Z7 33-559) above

With `OCCS` [2-mercaptoethanol], the “proportion of the enzyme activity inhibited” value in test [1] is greater than 80%.
In the case of `CC(C)[C@H](NC(=O)[C@H](Cc1ccccc1)NC(=O)c1ccccc1)C(=O)N[C@@H](CCCNC(=N)N)C(=O)Nc1ccc([N+](=O)[O-])cc1` [Benzoyl-Phe--Val--Arg--pNa.HCl] (Bz-Phe-Val-Arg-pNA), in the test on Thrombin, the Km (as a rule, the concentration of substrate that gives half-maximal velocity) was 110 µM and the Vmax was 0.036 M/min/NIH.U.
Regarding `CC(C)[C@H](NC(=O)c1ccccc1)C(=O)NCC(=O)N[C@@H](CCCNC(=N)N)C(=O)Nc1ccc([N+](=O)[O-])cc1` [Benzoyl-Val--Gly--Arg--pNA.HCl] (Bz-Val-Gly-Arg-pNA), the Vmax is on record as 1.4 M/min/M enzyme in test [2] (pH 9.0 (line above), ionic strength I 0.0035, substrate concentration by extinction); 1.1 M/min/M enzyme in test [2] (pH 9.0, ionic strength I 0.05, 0.05M Tris-HCl, 37° C.); 0.53 M/min/IU in test [3]. In addition, in test [3], the Km was 1000 µM.
With `N=C(N)NCCC[C@H](NC(=O)[C@H](CCC(=O)O)NC(=O)[C@@H](N)CCC(=O)O)C(=O)Nc1ccc([N+](=O)[O-])cc1` [Glu--Glu--Arg--pNA.HCl] (H-Glu-Glu-Arg-pNA), at Urokinase, the Km was 90 µM and the Vmax is 3.1 × 10^-4 M/min/PLOUG.U.
`CC[C@@H](C)[C@@H](N)C(=O)N1CCC[C@H]1C(=O)N[C@@H](CCCNC(=N)N)C(=O)Nc1ccc([N+](=O)[O-])cc1` [H--D--Ile--Pro--Arg--pNA.2HCl] (H-[dI]-Pro-Arg-pNA): the results for the Km at Urokinase, with Thrombin and with Plasmin were 200 µM, 3 µM and 9000 µM, respectively. The Vmax on Urokinase was 2 × 10^-4 M/min/U; with Thrombin it was 0.1 M/min/U; in the test with Plasmin, 5 m/min/U.
For `CC(C)C[C@H](NC(=O)[C@H](N)C(C)C)C(=O)N[C@@H](CCCCN)C(=O)Nc1ccc([N+](=O)[O-])cc1` [H--D--Val--Leu--Lys--pNA.2HCl] (H-[dV]-Leu-Lys-pNA), the Vmax was 27 M/min/M enzyme in test [2] (pH 7.4, ionic strength I 0.006, 0.05M Tris-HCl, 37° C.); 14.7 M/min/M enzyme in test [2] (pH 7.4, ionic strength I 0.15, 0.05M Tris-HCl, 37° C.); 4.08 M/min/M enzyme in test [2] (pH 9.0, ionic strength I 0.15, 0.05M Tris-HCl, 37° C.); 0.5 M/min/CU in the test with Plasmin. Further, in the test with Plasmin, the Km is 300 µM.
